Data from patent US12280047B2, “Treatment of aneurysms” (Georgia State Research Foundation, Inc., priority 2017, dated 2025).

How the values were obtained:
ApoE−/− mice [1] = assay: OMBA, NBA and 1MT treating AngII-induced abdominal aortic aneurysm (Example 15); type: in vivo; conditions: for Incidence of AAA: ApoE−/− mice, AngII 1,000 ng/kg/min four weeks, then drug in drinking water 6 weeks, mice with AAA/group size
Protocol: To test the effect of other Kynurenine pathway inhibitors on treating AngII-induced abdominal aortic aneurysm, male ApoE^−/− mice at age 8 weeks were infused with AngII (1,000 ng/kg/min) or saline (0.9% sodium chloride) by Alzet osmotic pumps for four weeks. Four weeks later, Ang-II treated mice were divided into […] groups of 18 and administered o-methoxybenzo ylalanine (OMB), (m-nitrobenzoyl)alanine (NBA), 1-methyltryptophan (1MT) or vehicle control (water) by drinking water for 6 weeks.
To quantify AAA incidence and size, the maximum width of abdominal aorta was measured with Image Pro Plus software (Media Cybernetics). Aneurysm incidence was quantified based on a definition of aneurysm as an external width of the suprarenal aorta that was increased by 50% or greater compared with aortas from saline-infused mice. The average diameter of the normal suprarenal aorta in control mice is 0.8 mm. Therefore, a threshold of 1.22 mm as evidence of aneurysm formation was set. […] Incidence of AAA among the various groups of mice is outlined in FIG. 31A and Table 5 below.

HASMCs = assay: MMP2 expression and activity in HASMCs incubated with metabolites of Trp degradation; type: cell-based, human
From the text: J Immunol. […] Neuropharmacology. […] Proc Natl Acad Sci USA.

MMP2 [2] = assay: MMP2 expression and activity in aortas of 3-HAA-injected mice; type: in vivo; conditions: 3-HAA 200 mg/kg/d i.p., 6 weeks; ApoE−/− and ApoE−/−/IDO−/− mice; vs vehicle-treated mice
Protocol: ApoE^−/− and ApoE^−/−/IDO^−/− mice at age 8 weeks on a chow diet were intraperitoneally injected with 3-HAA (200 mg/kg. d) or vehicle for 6 weeks. 3-HAA was dissolved in […] and further diluted in Captisol (Captisol Technology).
Circ Res. (2014) 114:480-92.
The evaluation of MMP activities in cells and aortas was performed as described previously in: Satoh K, et al., Cyclophilin A enhances vascular oxidative stress and the development of angiotensin II-induced aortic aneurysms. Nat Med. (2009) 15:649-56; Becerra A, et al., Increased activity of indoleamine 2,3-dioxygenase in serum from acutely infected dengue patients linked to gamma interferon antiviral function. J Gen Virol. (2009) 90:810-7; Holmes E W. Determination of serum kynurenine and hepatic tryptophan dioxygenase activity by high-performance liquid chromatography. Anal Biochem. (1988) 172:518-25; Forrest C M, et al., Kynurenine pathway metabolism in patients with osteoporosis after 2 years of drug treatment. Clin Exp Pharmacol Physiol. […]
To ascertain the effect of 3-HAA in MMP2 expression in vivo, ApoE^−/− and ApoE^−/−/IDO^−/− mice were intra-peritoneally treated with vehicle or 3-HAA (200 mg/kg/d) for 6 weeks. Corresponding increases in 3-HAA were detected in the plasma (FIG. 6F) and aortas (FIGS. 6D and 6E) of 3-HAA-injected ApoE^−/− and ApoE^−/−/IDO^−/− mice. […]

MMP2 [3] = assay: MMP2 in isolated mouse aortas incubated with 3-HAA ex vivo; conditions: 400 μM 3-HAA, 48 hours, aortas from ApoE−/− and ApoE−/−/IDO−/− mice
ApoE−/− mice [4] = assay: Serum kynurenine pathway metabolites in AngII mice treated with OMBA, NBA, 1MT (Example 15); type: in vivo
Protocol: The culture medium was centrifuged to pellet the cells to avoid contamination from the cells, and the supernatant was filtered ([…]) before use. Sample preparation for plasma was operated as described previously (Becerra A, et al., Increased activity of indoleamine 2,3-dioxygenase in serum from acutely infected dengue patients linked to gamma interferon antiviral function. J Gen Virol. (2009) 90:810-7; Holmes E W. Determination of serum kynurenine and hepatic tryptophan dioxygenase activity by high-performance liquid chromatography. Anal Biochem. (1988) 172:518-25). 200 μL of plasma was mixed by vortex in a small polyethylene conical tube with 1/10 volume of ice cold 2.4 mol/L perchloric acid. The cloudy suspension was chilled on ice for 15 min and then centrifuged at 10,000 g for 2 min. The clear protein-free supernatant was analyzed directly.
Circ Res. (2014) 114:480-92. Kyn content was estimated along with standards ranging from 0.5-20 μM L-kynurenine (Sigma, K8625), and Trp level was assessed along standards ranging from 1-25 μM DL-Tryptophan (Sigma, 162698), using a GraceVydac C18 column (250×4.6 mm, 5.0 The mobile phase was 20 mM sodium acetate at pH=4.5. The flow rate was 1 ml/min. The column effluent was monitored at 360 nm (Kyn) and 280 nm (Trp) by a UV detector.
3-HAA was measured by HPLC as described previously in Forrest C M, et al., Kynurenine pathway metabolism in patients with osteoporosis after 2 years of drug treatment. Clin Exp Pharmacol Physiol. (2006) 33:1078-87. 3-HAA content was estimated along with standards ranging from 1-200 nM 3-Hydroxyanthranilic acid (Santa Cruz, sc-216460), using a GraceVydac C18 column (250×4.6 mm, 5.0 The mobile phase consisted of 25 mM sodium acetate (pH=5.5) and methanol (90:10 v/v) was pumped at a flow rate of 1 ml/min. Fluorescent detection at excitation 320 nm and emission 420 was used. […]

[5] = concentration- and time-dependent manner

SMILES: Cn1cc(C[C@H](N)C(=O)O)c2ccccc21 [1MT, 1-methyltryptophan]
- Incidence of AAA (ApoE−/− mice [1]): 9/18

SMILES: Nc1c(O)cccc1C(=O)O [3-HAA, 3-Hydroxyanthranilic acid]
- MMP2 expression and activity (HASMCs; 48 hours, Kyn 100 μM, 3-HK 100 μM, KA 75 μM, AA 100 μM, 3-HAA 200 μM, XA 200 μM, QA 1 mM, immunoblot and zymography): dramatic increase
- expression and activity of MMP2 (HASMCs; [5]): induced
- phosphorylation of Elk1 at Ser383 (HASMCs; [5]): induced
- MMP2 expression and activity in aortas (MMP2 [2]): remarkably increased
- MMP2 expression and activity in isolated aortas (MMP2 [3]): significantly upregulated

SMILES: COc1ccccc1C(=O)NC(C)C(=O)O (stereo not drawn) [OMBA, o-Methoxybenzoylalanine]
- Serum levels of tryptophan (ApoE−/− mice [4]; AngII-administered mice, compared to control mice): decreased
- Levels of anthranilic acid (serum) (ApoE−/− mice [4]; compared to AngII alone): elevated
- Levels of kynurenic acid (serum) (ApoE−/− mice [4]; compared to AngII alone): elevated
- aortic weight to body weight ratio (ApoE−/− mice [1]; AngII-administered mice): lower
- maximal abdominal aortic diameter (ApoE−/− mice [1]; AngII-administered mice): lower
- Incidence of AAA (ApoE−/− mice [1]): 5/18
